Values after ≈ are worked out from the molar mass of the structure shown. Each block holds one molecule with its values, some of them ahead of it. Active and inactive are the calls of the source. The calls are words filed in the database; no cut-off is given here.
Tests used:
[1] = Drug level in rat liver microsomes treated with 9-Methyl-3-(1-(2-methylquinolin-4-yl)vinyl)-9H-carbazole assessed as CYP450-mediated compound metabolism at 100 uM after 6 hrs in presence of NADPH generating system by HPLC-UV-MS analysis; format: ADME
[2] = system: Cytochrome P450; assay: Drug level in human liver microsomes treated with 9-Methyl-3-(1-(2-methylquinolin-4-yl)vinyl)-9H-carbazole assessed as CYP450-mediated compound metabolism at 100 uM after 6 hrs in presence of NADPH generating system by HPLC-UV-MS analysis; format: ADME
[3] = system: Cytochrome P450; assay: Drug metabolism in human liver microsomes assessed as cytochrome P450-mediated N-demethylated metabolite formation at 100 uM after 6 hrs in presence of NADPH generating system by HPLC-UV-MS analysis; format: ADME
[4] = Drug metabolism in rat liver microsomes assessed as cytochrome P450-mediated hydroxylated metabolite formation at 100 uM after 6 hrs in presence of NADPH generating system by HPLC-UV-MS analysis; format: ADME
[5] = Aqueous solubility of the compound in phosphate buffer at pH 7.4 after 4 hrs by HPLC-UV analysis; format: physicochemical
[6] = Lipophilicity, log P of the compound after 24 hrs by HPLC analysis; format: physicochemical
[7] = system: Cytochrome P450; assay: Drug metabolism in human liver microsomes assessed as cytochrome P450-mediated hydroxylated metabolite formation at 100 uM after 6 hrs in presence of NADPH generating system by HPLC-UV-MS analysis; format: ADME
[8] = Drug metabolism in rat liver microsomes assessed as cytochrome P450-mediated N-demethylated metabolite formation at 100 uM after 6 hrs in presence of NADPH generating system by HPLC-UV-MS analysis; format: ADME
[9] = system: HCT-116; assay: cells; details: Homo sapiens, HCT-116, 72 h
Description: Antiproliferative activity against human HCT116 cells after 72 hrs by MTS assay

[10] = Inhibition of sheep brain tubulin polymerization by DAPI-fluorescence based fluorimetry; parameters: species or system Ovis aries
[11] = system: Cytochrome P450; assay: Drug level in human liver microsomes treated with isocombratestatin-A4 assessed as CYP450-mediated compound metabolism at 100 uM after 6 hrs in presence of NADPH generating system by HPLC-UV-MS analysis; format: ADME
[12] = Drug level in rat liver microsomes treated with isocombratestatin-A4 assessed as CYP450-mediated compound metabolism at 100 uM after 6 hrs in presence of NADPH generating system by HPLC-UV-MS analysis; format: ADME
[13] = system: U-87 MG; assay: Antiproliferative activity against human U87MG cells after 72 hrs by MTS assay; format: functional, cell-based, U-87MG ATCC
[14] = system: HUVEC; assay: cells; details: Homo sapiens, 72 h
Description: Antiproliferative activity against HUVEC after 72 hrs by MTS assay

[15] = system: K-562R; assay: Antiproliferative activity against human K562R cells after 72 hrs by MTS assay; format: functional, cell-based
[16] = system: K562; assay: cells; details: Homo sapiens, K562, 72 h
[17] = system: A549; assay: cells; details: Homo sapiens, A549, 72 h
Description: Antiproliferative activity against human A549 cells after 72 hrs by MTS assay

[18] = system: HUVEC; assay: Antiangiogenic activity in HUVEC assessed as disorganization of the vasculature network at 10 nM after 6 hrs by matrigel assay; format: functional, cell-based; details: Homo sapiens
[19] = system: HUVEC; assay: Antiangiogenic activity in HUVEC assessed as inhibition of tube formation after 2 to 6 hrs by matrigel assay; format: functional, cell-based; details: Homo sapiens
[20] = system: K-562R; assay: Potency index, ratio of iso-CA-4 IC50 to compound IC50 for antiproliferative activity against human K562R cells; format: functional
[21] = system: HCT-116; assay: Induction of cell cycle arrest in human HCT116 cells assessed as accumulation at G2M phase at 10 nM after 24 hrs by propidium iodide staining based flow cytometry relative to control; format: functional
[22] = system: HUVEC; assay: Antiangiogenic activity in HUVEC assessed as disorganization of the vasculature network at 50 nM after 2 hrs by matrigel assay; format: functional, cell-based; details: Homo sapiens
[23] = Drug metabolism in rat liver microsomes assessed as cytochrome P450-mediated 3-(1-(2-methylquinolin-4-yl)vinyl)-9H-carbazole metabolite formation at 100 uM after 6 hrs in presence of NADPH generating system by HPLC-UV-MS analysis; format: ADME
[24] = system: HT-29; assay: cells; details: Homo sapiens, HT-29, 72 h
Description: Antiproliferative activity against human HT-29 cells after 72 hrs by MTS assay

[25] = system: A549; assay: Potency index, ratio of CA-4 IC50 to compound IC50 for antiproliferative activity against human A549 cells; format: functional
[26] = system: HCT-116; assay: Induction of cell cycle arrest in human HCT116 cells assessed as accumulation at G2M phase after 24 hrs by propidium iodide staining based flow cytometry; format: functional
[27] = Metabolic stability in human liver microsomes assessed as parent compound at 100 uM up to […] in presence of NADPH generating system by HPLC-MS/MS analysis; format: ADME, Microsome
[28] = Metabolic stability in rat liver microsomes assessed as parent compound at 100 uM up to […] in presence of NADPH generating system by HPLC-MS/MS analysis; format: ADME, Microsome
[29] = system: Cytochrome P450; assay: Drug metabolism in human liver microsomes assessed as cytochrome P450-mediated 3-(1-(2-methylquinolin-4-yl)vinyl)-9H-carbazole metabolite formation at 100 uM after 6 hrs in presence of NADPH generating system by HPLC-UV-MS analysis; format: ADME
[30] = system: K-562R; assay: Potency index, ratio of CA-4 IC50 to compound IC50 for antiproliferative activity against human K562R cells; format: functional
[31] = Drug metabolism in rat liver microsomes assessed as cytochrome P450-mediated 6-(1-(3-hydroxy-4-methoxyphenyl)vinyl)-2,3,4-trimethoxyphenol metabolite formation at 100 uM after 6 hrs in presence of NADPH generating system by HPLC-UV-MS analysis; format: ADME
[32] = system: Cytochrome P450; assay: Drug metabolism in human liver microsomes assessed as cytochrome P450-mediated 6-(1-(3-hydroxy-4-methoxyphenyl)vinyl)-2,3,4-trimethoxyphenol metabolite formation at 100 uM after 6 hrs in presence of NADPH generating system by HPLC-UV-MS analysis; format: ADME
[33] = system: Cytochrome P450; assay: Drug metabolism in human liver microsomes assessed as cytochrome P450-mediated O-demethylated metabolite formation at 100 uM after 6 hrs in presence of NADPH generating system by HPLC-UV-MS analysis; format: ADME
[34] = Drug metabolism in rat liver microsomes assessed as cytochrome P450-mediated O-demethylated metabolite formation at 100 uM after 6 hrs in presence of NADPH generating system by HPLC-UV-MS analysis; format: ADME
[35] = Drug metabolism in rat liver microsomes assessed as cytochrome P450-mediated 4-(1-(3-hydroxy-4-methoxyphenyl)vinyl)-2,6-dimethoxyphenol metabolite formation at 100 uM after 6 hrs in presence of NADPH generating system by HPLC-UV-MS analysis; format: ADME
[36] = Drug metabolism in rat liver microsomes assessed as cytochrome P450-mediated 2-methoxy-5-(1-(3,4,5-trimethoxyphenyl)vinyl)cyclohexa-2,5-diene-1,4-dione metabolite formation at 100 uM after 6 hrs in presence of NADPH generating system by HPLC-UV-MS analysis; format: ADME
[37] = system: Cytochrome P450; assay: Drug metabolism in human liver microsomes assessed as cytochrome P450-mediated 4-(1-(3-hydroxy-4-methoxyphenyl)vinyl)-2,6-dimethoxyphenol metabolite formation at 100 uM after 6 hrs in presence of NADPH generating system by HPLC-UV-MS analysis; format: ADME
[38] = system: Cytochrome P450; assay: Drug metabolism in human liver microsomes assessed as cytochrome P450-mediated 2-methoxy-5-(1-(3,4,5-trimethoxyphenyl)vinyl)cyclohexa-2,5-diene-1,4-dione metabolite formation at 100 uM after 6 hrs in presence of NADPH generating system by HPLC-UV-MS analysis; format: ADME

SMILES: C=C(c1ccc2[nH]c3ccccc3c2c1)c1cc(C)nc2ccccc12
- Drug metabolism [1]: Metabolite_Detected
- Drug metabolism [2]: Metabolite_Detected

SMILES: C=C(c1ccc2c(ccn2C)c1)c1cc(C#N)nc2ccccc12
- Drug metabolism [3]: Metabolite_Detected
- Drug metabolism [4]: Metabolite_Detected
- solubility at 4 h [5]: 3.11 µg/mL (≈ 10.1 µM)
- logP at 24 h [6]: 2.37
- Drug metabolism [7]: Metabolite_Detected
- Drug metabolism [8]: Metabolite_Detected

SMILES: C=C(c1ccc(OC)c(O)c1)c1cc(OC)c(OC)c(OC)c1O
- Drug metabolism [11]: Metabolite_Detected
- Drug metabolism [12]: Metabolite_Detected

SMILES: C=C(c1cc(C)nc(C)c1)c1ccc2c(ccn2C)c1
- IC50 [13]: 31.6 nM
- Drug metabolism [3]: Metabolite_Detected
- IC50 [14]: 0.9 nM
- IC50 [15]: 0.84 nM
- Drug metabolism [4]: Metabolite_Detected
- IC50 [16]: 1.82 nM
- IC50 [9]: 3.8 nM
- solubility at 4 h [5]: 0.54 µg/mL (≈ 2.06 µM)
- logP at 24 h [6]: 5.2
- Drug metabolism [7]: Metabolite_Detected
- IC50 [17]: 61.9 nM
- Drug metabolism [8]: Metabolite_Detected
- IC50 [10]: 3700 nM

SMILES: C=C(c1ccc2c(c1)c1cc(F)ccc1n2C)c1cn(C)c(=O)n(C)c1=O
- IC50 [9]: 300 nM

SMILES: C=C(c1ccc(OC)c(O)c1)c1cc(OC)c(O)c(OC)c1
- Drug metabolism [11]: Metabolite_Detected
- Drug metabolism [12]: Metabolite_Detected

SMILES: C=C(c1ccc(OC)c(O)c1)c1cc(OC)c(OC)c(OC)c1
- IC50 [13]: 8.2 nM
- Drug metabolism [3]: Metabolite_Detected
- IC50 [14]: 2 nM
- IC50 [15]: 3 nM
- IC50 [24]: 265 nM
- Drug metabolism [31]: Metabolite_Detected
- Drug metabolism [4]: Metabolite_Detected
- IC50 [16]: 2 nM
- Drug metabolism [32]: Metabolite_Detected
- Drug metabolism [33]: Metabolite_Detected
- solubility at 4 h [5]: 11.6 µg/mL (≈ 36.7 µM)
- logP ([6]; 24 h): 3.25
- Drug metabolism [7]: Metabolite_Detected
- IC50 [17]: 8 nM
- Drug metabolism [8]: Metabolite_Detected
- IC50 [10]: 2100 nM
- Drug metabolism [34]: Metabolite_Detected

SMILES: C=C(C1=CC(=O)C(OC)=CC1=O)c1cc(OC)c(OC)c(OC)c1
- Drug metabolism [11]: Metabolite_Detected
- Drug metabolism [12]: Metabolite_Detected

SMILES: COc1ccc(/C=C\c2cc(OC)c(OC)c(OC)c2)cc1O [COMBRETASTATIN A4]
- IC50 [13]: 4 nM
- IC50 [14]: 1.7 nM
- IC50 [24]: > 8000 nM
- IC50 [16]: 5 nM
- IC50 [9]: 2.2 nM
- Drug metabolism [35]: Metabolite_Detected
- Drug metabolism [36]: Metabolite_Detected
- Drug metabolism [37]: Metabolite_Detected
- IC50 [17]: 200 nM
- IC50 [10]: 2200 nM
- Drug metabolism [38]: Metabolite_Detected

Further lines, with some results ahead:

- IC50 [9]: 12 nM
- IC50 [10]: 3600 nM
SMILES: C=C(c1ccc2c(c1)c1ccccc1n2C)c1cc(C#N)nc2ccccc12

- IC50 [9]: 19 nM
- IC50 [10]: 6200 nM
SMILES: C=C(c1ccnc(C)c1)c1ccc2c(c1)c1ccccc1n2C

- IC50 [13]: 1.9 nM
- Drug metabolism [3]: Metabolite_Detected
- IC50 [15]: 0.9 nM
- Drug metabolism [23]: Metabolite_Detected
- IC50 [24]: 3 nM
- Drug metabolism [4]: Metabolite_Detected
- IC50 [16]: 2 nM
- IC50 [9]: 2 nM
- solubility at 4 h [5]: 0.42 µg/mL (≈ 1.21 µM)
- logP at 24 h [6]: 5.29
- Drug metabolism [7]: Metabolite_Detected
- IC50 [17]: 3 nM
- Drug metabolism [8]: Metabolite_Detected
- IC50 [10]: 2000 nM
- Stability [27]: Stable
- Stability [28]: Stable
- Drug metabolism [29]: Metabolite_Detected
SMILES: C=C(c1ccc2c(c1)c1ccccc1n2C)c1cc(C)nc2ccccc12
- Activity [18]: Active
- Activity [19]: Dose-dependent effect
- Ratio IC50 [20]: 3
- IC50 [14]: 0.81 nM
- Activity [21]: >90%
- Activity [22]: Active
- Ratio IC50 [25]: 67
- Activity [26]: Dose-dependent effect
- Ratio IC50 [30]: 27

- IC50 [9]: 40 nM
- IC50 [10]: 2100 nM
SMILES: C=C(c1ccc2c(c1)c1ccccc1n2C)c1nc(C)nc2ccccc12

- IC50 [9]: 15 nM
- IC50 [10]: 3000 nM
SMILES: C=C(c1cc(OC)c(OC)c(OC)c1)c1ccc2c(c1)c1ccccc1n2C

- IC50 [9]: 195 nM
SMILES: C=C(c1ccc2c(c1)c1ccccc1n2C)c1cn(C)c(=O)n(C)c1=O

Source: ChEMBL document CHEMBL4330077, “1,1-Diheterocyclic Ethylenes Derived from Quinaldine and Carbazole as New Tubulin-Polymerization Inhibitors: Synthesis, Metabolism, and Biological Evaluation” (J Med Chem, 2019)
